Source: ChEMBL document CHEMBL3421561, “CNS drug design: balancing physicochemical properties for optimal brain exposure” (J Med Chem, 2015)

Tests used:
[1] = Ratio of unbound drug in brain to plasma in rat; format: ADME; conditions: brain and plasma, read-out: K(p,uu,brain)
[2] = AUC in rat interstitial fluid at 10 mg/kg, sc by transcortical microdialysis; format: ADME, organism-based; set-up: dose 10 mg/kg, route subcutaneous; conditions: in vivo
[3] = Ratio of drug uptake in brain to plasma in rat; format: ADME; conditions: brain and plasma
[4] = biological target: Mu-type opioid receptor (Homo sapiens, UniProt P35372); test: biochemical; format: cell-based, 293T
Mu-type opioid receptor, sequence (P35372 whole entry): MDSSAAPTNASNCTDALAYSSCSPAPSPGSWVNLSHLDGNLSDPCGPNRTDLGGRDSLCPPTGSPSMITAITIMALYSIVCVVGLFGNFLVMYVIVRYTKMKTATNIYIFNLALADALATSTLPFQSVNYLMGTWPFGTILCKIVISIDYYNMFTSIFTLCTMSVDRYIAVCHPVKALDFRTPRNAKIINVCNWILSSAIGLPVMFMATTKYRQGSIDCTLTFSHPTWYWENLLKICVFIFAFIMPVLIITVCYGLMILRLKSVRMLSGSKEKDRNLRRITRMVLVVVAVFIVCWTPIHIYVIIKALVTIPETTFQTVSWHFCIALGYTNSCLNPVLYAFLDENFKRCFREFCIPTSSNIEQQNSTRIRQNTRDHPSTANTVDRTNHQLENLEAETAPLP
Description: Displacement of [3H]naloxone from MOR (unknown origin) expressed in human 293T cells

[5] = tested on: Brain; test: AUC in rat brain at 10 mg/kg, sc; format: ADME, organism-based; set-up: dose 10 mg/kg, route subcutaneous; conditions: in vivo
[6] = Ratio of unbound drug in brain to plasma in mouse; format: ADME, organism-based; conditions: brain and plasma, read-out: K(p,uu,brain)
[7] = tested on: Gerbillinae; test: Antagonist activity at NK1 receptor in substance P-induced gerbil foot tapping model
[8] = tested on: Rattus norvegicus; test: AUC (0 to 1 hr) in rat at 0.5 mg/kg, iv; format: ADME, organism-based, Plasma; set-up: time < 1 hr, dose 0.5 mg/kg, route intravenous; conditions: in vivo
[9] = biological target: Substance-P receptor (Homo sapiens, UniProt P25103); test: Antagonist activity at NK1 receptor (unknown origin)
Substance-P receptor, sequence (P25103 whole entry): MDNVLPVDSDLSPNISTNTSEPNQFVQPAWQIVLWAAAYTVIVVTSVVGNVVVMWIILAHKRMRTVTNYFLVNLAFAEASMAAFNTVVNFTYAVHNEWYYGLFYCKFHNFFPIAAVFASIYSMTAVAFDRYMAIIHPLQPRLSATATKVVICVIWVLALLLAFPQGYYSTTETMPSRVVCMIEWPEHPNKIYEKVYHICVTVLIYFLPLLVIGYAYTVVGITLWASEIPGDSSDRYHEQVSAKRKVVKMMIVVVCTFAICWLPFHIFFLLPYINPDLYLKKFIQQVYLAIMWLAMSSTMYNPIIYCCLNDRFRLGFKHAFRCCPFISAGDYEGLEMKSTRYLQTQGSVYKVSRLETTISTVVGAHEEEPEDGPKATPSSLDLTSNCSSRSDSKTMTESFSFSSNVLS

[10] = Apparent permeability of the compound; conditions: not told
[11] = Half life in dog; format: ADME, organism-based, Canis lupus familiaris; conditions: in vivo
[12] = Solubility of the compound; format: physicochemical
[13] = Oral bioavailability in dog; format: ADME, organism-based, Canis lupus familiaris; conditions: in vivo

SMILES	AUC [2] [µM/min]	Kp [3]	AUC [5] [µM/min]	MED [7] [mg/kg]	AUC [8] [ng·h/g]	also measured
CN1CC[C@]23c4c5ccc(O)c4O[C@H]2[C@@H](O[C@@H]2O[C@H](C(=O)O)[C@@H](O)[C@H](O)[C@H]2O)C=C[C@H]3[C@H]1C5 [MORPHINE GLUCURONIDE]	336	0.05	42			Kp uu [1]: 0.56; Ki [4]: 63 nM
COc1ccc(C(CN(C)C)C2(O)CCCCC2)cc1 (centres undefined) [VENLAFAXINE]						Kp uu [6]: 0.98
CN1CC[C@]23c4c5ccc(O)c4O[C@H]2[C@@H](O)C=C[C@H]3[C@H]1C5 [MORPHINE]	79		186			
C[C@H](NC(=O)[C@](Cc1c[nH]c2ccccc12)(CN(C)C)NC(=O)OCc1cc2ccccc2o1)c1ccccc1		6		1	50	IC50 [9]: 0.5 nM
CC(C)(C)c1ccc(C(O)CCCN2CCC(C(O)(c3ccccc3)c3ccccc3)CC2)cc1 (centres undefined) [TERFENADINE]						Papp [10]: 28.5 ×10⁻⁶ cm/s
C[C@H](NC(=O)[C@@](C)(Cc1c[nH]c2ccccc12)NC(=O)OCc1cc2ccccc2o1)c1ccccc1		0.4		30	120	half-life [11]: > 6 h; solubility [12]: < 2 µg/mL; bioavailability [13]: 60%
